Assay results: the SangsterLogP compilation

What was measured:
[1] = method code SF, from DOI: 10.1016/s0006-3495(89)82875-9, PMID: 2470429; conditions: pH 7.3
[2] = method code SF-HPLC, from DOI: 10.1016/s0021-9673(99)01336-9, PMID: 10757301
[3] = method code SF-HPLC, from DOI: 10.1021/jm300631e, PMID: 22734650; conditions: pH 7.4
[4] = method code SF-FL, from DOI: 10.1248/cpb.27.638, PMID: 554741
[5] = method code SF-AS, from DOI: 10.1021/jm00254a028, PMID: 4845386
[6] = not given; remark: listed apart in the source
[7] = method code SF-AS, from DOI: 10.1016/j.ejmech.2010.07.027, PMID: 20705371
[8] = method code SF-GLC, from Jha, T.; Debnath, A.; Mazumdar, A.; Sengupta, C.; De, A. (1986). Hansch analysis of antineoplastic agents, 5-N-substituted-2-p-substituted benzenesulfonyl-L-glutamines. Ind. J. Chem., Sect. B, …
[9] = method code SF, from DOI: 10.1016/j.ejmech.2012.08.015, PMID: 22960698
[10] = not given; remark: listed apart in the source
[11] = method code SF, from DOI: 10.1021/jm049495j.s001, PMID: 15771458; conditions: pH 12.0
[12] = not given; remark: listed apart in the source
[13] = method code SF-AS, from Galdino, S.; Pitta, I.; Luc-Duc, C. (1986). 5-Benzylidene pyrrolones, furanones and thiopenones. II. Quantitative structure-antifungal correlation. Farmaco [Sci], 41(1)59-68.
[14] = not given; remark: listed apart in the source
[15] = not given; remark: listed apart in the source
[16] = method code SF-RC, from DOI: 10.1016/s0969-8051(01)00199-8, PMID: 11395310; conditions: pH 7.4
[17] = method code SF-AS, from DOI: 10.1021/js960093b, PMID: 8897274; conditions: pH 7.4
[18] = not given; remark: listed apart in the source
[19] = method code SF-FL, from DOI: 10.1002/jps.2600810104, PMID: 1352350
[20] = method code SF-AS, from DOI: 10.1016/s0021-9673(00)91570-x; conditions: pH 3.4
[21] = method code SF-AS, from DOI: 10.1007/bf00500291, PMID: 4270072; conditions: pH 7.4
[22] = method code SF-HPLC, from Hairsine, P. (1997). Direct measurement of partition coefficient by shake flask technique and gradient elution HPLC. Lab. Practice, 38(11)73-75.
[23] = method code SF-NMR, from DOI: 10.1016/j.jpba.2012.12.010, PMID: 23298914; conditions: pH 7.6
[24] = method code SF-RC, from DOI: 10.1021/acs.jmedchem.6b00849, PMID: 27690428; conditions: pH 7.4
[25] = not given; remark: listed apart in the source
[26] = method code SF, from DOI: 10.1016/j.ijpharm.2011.07.043, PMID: 21839822; conditions: pH 7.4
[27] = not given; remark: listed apart in the source
[28] = method code SF, from DOI: 10.1016/s0223-5234(03)00044-8, PMID: 12750026; conditions: pH 7.4
[29] = method code SF-AS, from DOI: 10.1081/jlc-100100410; conditions: pH 4.0
[30] = not given; remark: listed apart in the source
[31] = not given; remark: listed apart in the source
[32] = method code SF-HPLC, from DOI: 10.1023/a:1013643013244, PMID: 11837695; conditions: pH 6.4
[33] = method code SF, from DOI: 10.1021/jm061062o.s001, PMID: 17326614; conditions: pH 7.4
[34] = method code SF-HPLC, from DOI: 10.1023/a:1007514121527, PMID: 10714601; conditions: pH 7.4
[35] = not given; remark: listed apart in the source
[36] = method code SF-AS, from Thiel, W. (1998). Structure and physicochemical properties of retigabine. Pharmazie, 53(12)865-868.; conditions: pH 7.4
[37] = method code SF-ILT, from DOI: 10.1002/ardp.19763091008, PMID: 1008678
[38] = method code SF-AS, from DOI: 10.1016/s0022-3565(25)32601-7, PMID: 7194909
[39] = method code SF, from Tomlin, C. (2000). The Pesticide Manual (12th Edition) British Crop Protection Council, Bracknell.
[40] = method code SF-AS, from PMID: 17401091; conditions: pH 7.4
[41] = method code SF-AS, from PMID: 3449083
[42] = method code SF-AS/IM, from DOI: 10.1002/jps.2600661205, PMID: 925928
[43] = not given; remark: listed apart in the source
[44] = method code SF, from DOI: 10.1016/j.ejps.2016.06.024, PMID: 27373604; conditions: pH 7.4

`COC(=O)C1=C(C)NC(C)=C([N+](=O)[O-])C1c1ccccc1C(F)(F)F` (stereo not given) gave a logD [1] of 2.46.
Compound `CO/N=C(\C(=O)N[C@@H]1C(=O)N2C(C(=O)O)=C(COC(N)=O)CS[C@H]12)c1ccco1` has a logP [2] of -0.17.
For `CCN1C=CC(=C2C(=O)c3ccc(Cl)cc3C2=O)C=C1`, the logP was 2.76.
Compound `C=CCC1(c2cccc(C3(C(F)(F)F)N=N3)c2)C(=O)NC(=O)N(C)C1=O` (stereo not given) has a logD [3] of 3.79.
Compound `c1ccc(Nc2cccc3ccccc23)cc1` has a logP [4] of 4.2.
Work on `NC(=O)OC1c2ccccc2C2CCCCC2C1OC(N)=O` (stereo not given) yielded a logP [5] of 2.17.
`COc1ccc(Sc2ccc(I)cc2N)c(CN(C)C)c1` showed a logP [6] of 3.34.
For `CC(C)(C)c1ccc(O)c(CN2CCOCC2)c1`, the logP [7] was 1.96.
In the case of `CCCNC(=O)CCC(NS(=O)(=O)c1ccc(C)cc1)C(=O)O` (stereo not given), the logP [8] is reported as 0.13.
Compound `O=C(CC1OC(=O)c2ccccc21)c1ccc(Cl)c(Cl)c1` (stereo not given) has a logP [9] of 4.24.
With `Oc1ccc(C23CC4CC(CC(C4)C2)C3)cc1` the logP [10] was 5.46.
Work on `c1ccc2c(c1)CCn1ccnc1C21CCNCC1` yielded a logD [11] of 1.18.
Work on `CCCCCCNC(=O)CNC(=O)OCc1ccccc1` yielded a logP [12] of 3.7.
Compound `CCOC(=O)C1=C(C)O/C(=C\c2ccc(OC)cc2)C1=O` has a logP [13] of 2.96.
With `O=C(O)Cc1ccc2c(c1)C(=O)c1ccccc1CS2` the logP [14] was 2.97.
`CCc1cccc(C)c1N(C(=O)CCl)C(C)COC` (stereo not given) showed a logP [15] of 3.09.
For `CCN1CCC[C@H]1CNC(=O)c1c(OC)ccc(I)c1O`, the logD [16] was 2.85.
`N#CN=C1NC(=O)C(c2ccccc2)(c2ccccc2)N1` gave a logD [17] of 1.16.
Compound `COc1ccc(C(=O)NNC(=O)c2ccc(OC)cc2)cc1` has a logP [18] of 1.55.
With `CN1CCN=C(c2ccccc2)c2cc(Cl)ccc21` the logP [19] was 3.3.
`COc1cc(CC(=O)O)ccc1OCC1CCCCC1` showed a logD [20] of 3.35.
`CN1C(=O)CN=C(C2=CCCCC2)c2cc(Cl)ccc21` showed a logD [21] of 2.76.
Work on `O=C(CCNNC(=O)c1ccncc1)NCc1ccccc1` yielded a logP [22] of 0.83.
Compound `COC(=O)C(N)Cc1cc(I)c(Oc2ccc(O)c(I)c2)c(I)c1` (stereo not given) has a logD [23] of 2.6.
Work on `N#Cc1ccc(N(Cc2ccc(I)cc2)n2cnnc2)cc1` yielded a logD [24] of 2.48.
Compound `CN(C)Cc1ccccc1Sc1ccc(I)cc1CO` has a logP [25] of 2.67.
`CCCCCCCCNC(=O)c1ccccc1O` gave a logD [26] of 3.7.
`c1cc2ccc1CCc1ccc(cc1)CC2` gave a logP [27] of 4.61.
For `CNC(=O)Oc1ccc2c(c1)C1(C)CCN(C)C1N2C` (stereo not given), the logD [28] was 0.97.
`CC(C)Oc1ccc(C(=O)NS(=O)(=O)c2ccc(N)cc2)cc1` gave a logD [29] of 1.21.
`CCOP(=S)(NC(C)C)Oc1ccccc1C(=O)OC(C)C` (stereo not given) showed a logP [30] of 3.7.
Compound `Cc1nc(N)nc(N)c1C12CC3CC(CC(C3)C1)C2` has a logP [31] of 2.64.
Work on `CCCN1C(=O)CCC(N2C(=O)c3ccccc3C2=O)C1=O` (stereo not given) yielded a logD [32] of 2.11.
For `CS(=O)(=O)CCN(CCBr)c1cc(C(=O)NCC(O)CO)c([N+](=O)[O-])cc1[N+](=O)[O-]` (stereo not given), the logD [33] was -0.05.
Work on `COc1cc2oc(=O)cc(CC(NC(C)=O)C(N)=O)c2cc1OC` (stereo not given) yielded a logD [34] of -0.13.
For `O=C(O)Cc1ccc2c(c1O)C(=O)c1c(O)cccc1C2`, the logP [35] was 3.1.
Compound `CCOC(=O)Nc1ccc(NCc2ccc(F)cc2)cc1N` has a logD [36] of 2.17.
Work on `CCNC(=O)C1C2C=CC(C2)C1C(=O)N(CC)CC` (stereo not given) yielded a logP [37] of 0.99.
Compound `OC1(c2ccc(Cl)cc2)c2ccccc2C2=NCCN21` (stereo not given) has a logP [38] of 1.81.
With `COCC(=O)N(c1c(C)cccc1C)C(C)C(=O)OC` (racemic) the logP [39] was 1.75.
`CN(C)c1ncc(C=Cc2nc3ccc(OCCF)cc3o2)s1` showed a logD [40] of 1.75.
In the case of `CN1C=CCC(C(=O)OC2CCC(NC(=O)N(CCCl)N=O)CC2)=C1` (stereo not given), the logP [41] is reported as 2.53.
With `CC1(C)S[C@@H]2[C@H](NC(=O)COc3ccccc3)C(=O)N2[C@H]1C(=O)O` the logP [42] was 1.95.
`Cc1ccc2oc(-c3ccccc3C(=O)O)c(Br)c2c1` showed a logP [43] of 5.19.
Compound `NC(=O)C1c2ccccc2CCc2ccccc21` has a logD [44] of 1.67.
